# Experimental data as given in patent US6552192B1, “Substituted nitrogen heterocyclic derivatives and pharmaceutical use thereof” (Ustau Experimentalni Botaniky AV-CR, priority 1999, dated 2003).
# Like-named read-outs stand apart in the source and are kept apart here.
# Columns and labels:
# [1] = tested on: T-lymphoblastic leukemia cell line CEM; assay: In vitro cytotoxicity, MTT assay, CEM; assay type: cell-based; conditions: Homo sapiens, 72 hours
# From the text: (§1) One of the parameters used, as the basis for colorimetric assays, is the metabolic activity of viable cells. For example, a microtiter assay, which uses the tetrazolium salt MTT, is now widely used to quantitate cell proliferation and cytotoxicity. For instance, this assay is used in drug screening programs and in chemosensitivity testing. Because only metabolically active cells cleave tetrazolium salts, these assays detect viable cells exclusively. In the case of MTT assay, yellow soluble tetrazolium salt is reduced to coloured water-insoluble formazan salt. After it is solubilized, the formazan formed can easily and rapidly be quantified in a conventional ELISA plate reader at 570 nm (maximum absorbance). The quantity of reduced formazan corresponds to number of vital cells in the culture.
# (§2) The cells were maintained in Nunc/Corning 80 cm^2 plastic tissue culture flasks and cultured in cell culture medium (DMEM with 5 g/l glucose, 2 mM glutamine, 100 U/ml penicillin, 100 μg/ml streptomycin, 10% fetal calf serum and sodium bicarbonate).
# (§3) The cell suspensions that were prepared and diluted according to the particular cell type and the expected target cell density (2.500-30.000 cells per well based on cell growth characteristics) were added by pipette (80 μl) into 96/well microtiter plates. Inoculates were allowed a pre-incubation period of 24 hours at 37° C. and 5% CO2 for stabilisation. Four-fold dilutions of the intended test concentration were added at time zero in 20 μl aliquots to the microtiter plate wells. Usually, test compound was evaluated at six 4-fold dilutions. […] All drug concentrations were examined in duplicates. Incubations of cells with the test compounds lasted for 72 hours at 37° C., in 5% CO2 atmosphere and 100% humidity. At the end of incubation period, the cells were assayed by using the MTT. Ten microliters of the MTT stock solution were pipetted into each well and incubated further for 1-4 hours. […] The optical density (OD) was measured at 540 nm with the Labsystem iEMS Reader MF (UK). The tumour cell survival (TCS) was calculated using the following equitation: TCS=(ODdrug exposed well/mean ODcontrol wells)×100%. The TCS50 value, the drug concentration lethal to 50% of the tumour cells, was calculated from the obtained dose response curves.
# [2] = target: T1, CDC2 (p34^cdc2) (Homo sapiens, UniProt P06493); assay: CDK inhibition assay, p34cdc2 kinase (histone H1 phosphorylation); assay type: biochemical; conditions: 1 mg/ml histone H1, 15 μM ATP
# T1 construct: made in house; host or cells: Sf9 insect cells (baculovirus co-infection)
# T1 sequence (P06493 whole entry, species assumed): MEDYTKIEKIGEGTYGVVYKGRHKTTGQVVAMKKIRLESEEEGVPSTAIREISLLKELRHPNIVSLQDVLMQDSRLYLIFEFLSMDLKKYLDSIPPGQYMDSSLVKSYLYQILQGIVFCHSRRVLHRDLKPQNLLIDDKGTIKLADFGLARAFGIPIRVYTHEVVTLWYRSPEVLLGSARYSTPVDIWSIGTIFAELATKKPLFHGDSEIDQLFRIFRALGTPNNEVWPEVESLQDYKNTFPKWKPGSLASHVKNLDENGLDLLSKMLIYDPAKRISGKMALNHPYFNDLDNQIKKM
# T1 sequence (P14635 whole entry partner, species assumed): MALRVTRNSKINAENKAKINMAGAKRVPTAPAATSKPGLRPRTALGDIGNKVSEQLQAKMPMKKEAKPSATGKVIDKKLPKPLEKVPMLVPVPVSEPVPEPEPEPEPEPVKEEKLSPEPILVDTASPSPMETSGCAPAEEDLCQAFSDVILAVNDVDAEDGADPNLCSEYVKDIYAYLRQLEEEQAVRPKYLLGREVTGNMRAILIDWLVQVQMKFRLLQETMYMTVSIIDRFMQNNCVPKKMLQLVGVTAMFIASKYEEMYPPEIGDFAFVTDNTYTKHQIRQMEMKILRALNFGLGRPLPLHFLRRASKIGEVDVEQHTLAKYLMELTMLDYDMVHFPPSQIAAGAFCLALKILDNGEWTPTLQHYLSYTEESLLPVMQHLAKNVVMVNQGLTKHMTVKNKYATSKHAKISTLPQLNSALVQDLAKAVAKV
# Method: Cyclin-dependent kinases (p34^cdc2, p33^cdk2, p33^cdk4) and cyclins (cyclin B, E and D1) are produced in Sf9 insect cells coinfected with appropriate baculoviral constructs. The cells are harvested 68-72 hrs post infection in lysis buffer for 30 min on ice and the soluble fraction is recovered by centrifugation at 14.000 g for 10 min. The protein extract is stored at −80° C.
# Lysis buffer: 50 mM Tris pH 7,4, 150 mM NaCl, 5 mM EDTA, 20 mM NaF, 1% Tween, 1 mM DTT, 0.1 mM PMSF, leupeptine, aprotomine
# To carry out experiments on kinetics under linear conditions, the final point test system for kinase activity measurement is used. The kinase is added to reaction mixture in such a way as to obtain linear activity with respect to the concentration of enzyme and with respect to time.
# Kinase activity is determined at 30° C. in the kinase buffer.
# Tested compounds are usually dissolved to 100 mM solutions in DMSO, final concentration of DMSO in reaction mixture never exceeds 1%. The controls contain suitable dilutions of DMSO.
# After 10 min, addition 3×SDS sample buffer stops the incubations. […] The measurement of kinase activity is done using digital image analysis.
# The kinase activity is expressed as a percentage of maximum activity, the apparent inhibition constants are determined by graphic analysis. Kinase buffer: 50 mM Hepes pH 7.4, 10 mM MgCl2, 5 mM EGTA, 10 mM 2-glycerolphosphate, 1 mM NaF, 1 mM DTT
# [3] = tested on: normal human lymphocytes, mitogen activated proliferation; assay: Mitogen (concanavalin A) activated proliferation of lymphocytes, 3H-thymidine incorporation; assay type: cell-based; conditions: Lymphocyte, 72 hours
# Method: (§4) Human heparinized peripheral blood was obtained from healthy volunteers by cubital vein punction.
# (§5) The cells were diluted at target density of 1.100.000 cells/ml were added by pipet (180 μl) into 96/well microtiter plates. Four-fold dilutions of the intended test concentration were added at time zero in 20 μl aliquots to the microtiter plate wells. Usually, test compound was evaluated at six 4-fold dilutions. […] Incubations of cells with test compounds lasted for 72 hours at 37° C., in 5% CO2 atmosphere and 100% humidity. At the end of incubation period, the cells were assayed by using the [^3H]-TdR:
# (§6) Cell cultures were incubated with […] (20 μl of stock solution 500 μCi/ml) per well for 6 hours at 37° C. and 5% CO2. The automated cell harvester was used to lyse cells in water and adsorb the DNA onto glass-fiber filters in the format of microtiter plate. The DNA incorporated [^3H]-TdR was retained on the filter while unincorporated material passes through. The filters were dried at room temperature overnight, sealed into a sample bag with 10-12 ml of scintillant. The amount of [^3]H-TdR present in each filter (in CCPM) was determined by scintillation counting in a Betaplate liquid scintillation counter. The effective dose of immunosuppressant (ED) was calculated using the following equotation: ED=(CCPMdrug exposed well/mean CCPMcontrol wells)×100%.
# [4] = tested on: B16 melanoma; assay: In vitro cytotoxicity, MTT assay, B16; assay type: cell-based; conditions: Mus musculus, 72 hours
# From the text: as §1, §2, §3
# [5] = target: IκB-α; assay: IκB-α kinase inhibition, in vitro kinase assay; assay type: biochemical
# [6] = tested on: normal human lymphocytes, spontaneous proliferation; assay: Spontaneous proliferation of lymphocytes, 3H-thymidine incorporation; assay type: cell-based; conditions: Lymphocyte, 72 hours, unstimulated lymphocytes
# Method: as §4, §5, §6
# [7] = unit nM printed beside the value
Structure (SMILES),"IC50 ([2]; 30° C., 10 min) [nM]",IC50 [5] [nM],"IC50 [2, 7] [nM]","IC50 [5, 7] [nM]",melting point [°C],IC50 [1] [µM],IC50 [3] [µM],IC50 [4] [µM],IC50 [6] [µM]
Cn1c(S)nc2c(NCc3ccccc3)nc(NCCO)nc21,22400,35700,–,–,–,92.4,83.5,85.7,≥ 250
CC(C)n1c(N)nc2c(NCc3ccccc3)nc(NCCCO)nc21,8520,12800,–,–,–,8.52,1.59,6.8,143
CC[C@H](CO)Nc1nc(NCc2ccccc2)c2nc(NCN)n(C(C)C)c2n1,181000,193000,–,–,–,–,25.8,–,177
CC(C)n1c(Br)nc2c(NCc3ccccc3)nc(NCCCO)nc21 [2-(3-hydroxypropylamino)-6-benzylamino-8-bromo-9-isopropypurine],12900,24500,–,–,156 to 161,117,5.9,76.4,178
CSc1nc2c(NCc3ccccc3)nc(NCCCO)nc2n1C(C)C [2-(3-hydroxypropylamino)-6-benzylamino-8-methylthio-9-isopropylpurine],–,–,–,–,64 to 67,68.4,–,60.6,–
"COc1cccc(CNc2nc(Cl)nc3c2nc(Br)n3C(C)C)c1 [Example 3, 6-(3-Methoxybenzylamino)-2-chloro-8-bromo-9-isopropylpurine]",–,–,–,–,123 to 125,–,–,–,–

# Further lines, with some results ahead:
"IC50 ([2]; 30° C., 10 min) [nM]",IC50 [5] [nM],"IC50 [2, 7] [nM]","IC50 [5, 7] [nM]",melting point [°C],Structure (SMILES),IC50 [1] [µM],IC50 [3] [µM],IC50 [4] [µM],IC50 [6] [µM]
125000,154000,–,–,–,Cn1c(NCCO)nc2c(NCc3ccccc3)nc(NCCO)nc21,> 167,169,> 167,≥ 250
13500,16200,–,–,–,Cn1c(O)nc2c(NCc3ccccc3)nc(NCCO)nc21,45.5,48.6,56.2,201
144000,153000,–,–,–,CC(C)n1c(NCCO)nc2c(NCc3ccccc3)nc(NCCCO)nc21,> 167,29.3,> 167,181
6480,12600,–,–,–,CC(C)n1c(O)nc2c(NCc3ccccc3)nc(NCCCO)nc21,7.48,2.1,5.6,163
–,–,3.8,11,–,CC(C)[C@H](CO)Nc1nc(Nc2cccc(Cl)c2)c2nc(F)n(C(C)C)c2n1,2.5,–,–,–
380,1200,–,–,–,CC[C@H](CO)Nc1nc(NCc2ccccc2)c2nc(F)n(C(C)C)c2n1,3.38,–,3.2,–
